Experimental data reported in ChEMBL document CHEMBL3045449, “2-Bromo-1-ethoxy-(2,4-dichloro)styrene and 2,2-dibromo-1-ethoxy-(2,4-dichloro)styrenethe two impurities of bromfenvinphos; their identification, synthesis and full characterization” (J Pestic Sci, 2010).
Activity calls are given as the source filed them.

Legend:
Assay type in all cases: functional, organism-based
[1] = tested on: Tetranychus urticae; test: Insecticidal activity against Tetranychus urticae (two-spotted spider mite)
[2] = tested on: Musca domestica; test: Insecticidal activity against Musca domestica (house fly)
[3] = tested on: Blatta orientalis; test: Insecticidal activity against Blatta orientalis
[4] = tested on: Sitophilus granarius; test: Insecticidal activity against Sitophilus granarius (granary weevil)

Measured: Activity

CCOC(=C(Br)Br)c1ccc(Cl)cc1Cl
inactive: [1] | [2] | [3] | [4]

CCOC(=CBr)c1ccc(Cl)cc1Cl (mixture of isomers)
inactive: [1] | [2] | [3] | [4]
